Molecular target: T1, NaPPO1 (Nicotiana attenuata, UniProt A0A1J6JLI9)
T1 sequence (A0A1J6JLI9 1-596): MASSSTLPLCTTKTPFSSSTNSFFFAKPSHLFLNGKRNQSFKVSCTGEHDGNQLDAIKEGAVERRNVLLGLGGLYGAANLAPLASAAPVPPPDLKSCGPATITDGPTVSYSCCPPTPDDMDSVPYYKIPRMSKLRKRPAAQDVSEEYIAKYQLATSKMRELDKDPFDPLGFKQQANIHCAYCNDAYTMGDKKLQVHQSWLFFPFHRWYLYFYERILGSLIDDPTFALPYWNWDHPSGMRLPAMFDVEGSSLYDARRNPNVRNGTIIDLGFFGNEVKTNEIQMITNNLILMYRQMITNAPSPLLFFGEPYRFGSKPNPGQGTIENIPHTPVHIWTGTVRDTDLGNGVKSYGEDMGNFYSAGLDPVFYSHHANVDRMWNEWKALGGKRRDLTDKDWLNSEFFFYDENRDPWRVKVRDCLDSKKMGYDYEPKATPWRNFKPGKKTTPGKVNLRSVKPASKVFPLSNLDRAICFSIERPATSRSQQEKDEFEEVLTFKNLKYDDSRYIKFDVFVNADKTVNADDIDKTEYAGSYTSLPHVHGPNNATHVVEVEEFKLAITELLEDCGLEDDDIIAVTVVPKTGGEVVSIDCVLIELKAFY
Experiment: In vitro enzyme assay, substrate specificity of NaPPO1
Assay type: biochemical
Settings: incubated with NaPPO1 and (Z)-3-hexenal
Text: Extracted ion chromatograms (EIC) for doubly charged CP dimer (m/z 250.13) and m/z 347.19 in E. coli expressing NaPPO1 and NaPPO2 with CP and Z3H or (E)-2-hexenal. Compounds 1, 2, 3, 4 denote isomers of CP dimer; compounds 5, 6 denote isomers of m/z 347.19.
FIG. 53 Substrate specificity of NaPPO1 and NaPPO2 enzymes. Overlay of total ion chromatograms (TIC) of enzyme assays for authentic chlorogenic acid (CGA std), N-coumaroylputrescine (CoP std), (Z)-3-hexenal or (E)-2-hexenal with purified NaPPO1/NaPPO2 from E. coli. Compounds 1 and 2 denote CGA and CoP; 3 and 4 denote contamination peaks from (Z)-3-hexenal and CoP standards, respectively.
To test this hypothesis, purified NaPPO1, NaPPO2 and NaBBL2 proteins with N-terminal hexahistidine tags after expression in Escherichia coli were isolated (FIGS. 44-45). Incubation of either NaPPO1 or NaPPO2 (NaPPO1/2) with CP and (Z)-3-hexenal yielded a m/z 347.19 peak with identical MS/MS spectrum and retention time as the m/z 347.19 induced in N. attenuata leaves (FIG. 46). Additionally, by-products of doubly charged CP dimers at m/z 250.13 ([M+2H]2+, C26H36N4O62+) which are not detected in oral secretion-induced leaves of N. attenuata WT (Data 2) were also produced in vitro (FIG. 16 and FIG. 47). These doubly charged CP dimers were only produced when the quantities of the (Z)-3-hexenal substrate were lower than those of the CP substrate in vitro. […]
In vitro assays of NaPPO1, NaPPO2, and NaBBL2: NaPPO1, NaPPO2, and NaBBL2 enzyme activity assays were performed by incubating 100 μg of the purified recombinant protein in 84 mM acetate buffer (pH 4.8) containing 20 mM (E)-N-caffeoylputrescine (BOC Sciences, catalogue #: B0005-053482) and 1 M cis-3-hexenal (Sigma, catalogue #: W256102-SAMPLE-K) or trans-2-hexenal (Sigma, catalogue #: W256005-1KG-K). During incubation of the enzyme reactions at 8° C., 1 μL of the reactions buffer was directly injected and analyzed by LC-MS every h to detect products. […]

## N-coumaroylputrescine [CoP]
  acceptance as substrate (new products): not accepted as substrates

From patent US20250051266A1, “Novel GLV-Phenolamide: Biosynthesis and Function in Protecting Plants from Herbivore Attack” (Max-Planck-Gesellschaft zur Förderung der Wissenschaften …, priority 2021, published 2025)
